# Experimental data as given in ChEMBL document CHEMBL1201862, “PubChem BioAssay data set” (2004).
#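 A five-concentration, 48-hour dose response in 96-well plates underlies each endpoint, interpolated linearly between surrounding concentrations. At the GI50, growth is halved.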 Calls of active or inactive are those of the source. No stated cut-off is given here; in the data, active = GI50 up to about 1.1 µM and inactive = higher.
# Columns and labels:
# Assay in all cases: NCI tumour cell line growth inhibition, 48 h
# KM12 = test system: KM12
# PC-3 = test system: PC-3
# EKVX = test system: EKVX
# ACHN = test system: ACHN
# SW-620 = test system: SW-620
# CCRF-CEM = test system: CCRF-CEM
# T47D = test system: T47D
# A498 = test system: A498
# U-251 = test system: U-251
# OVCAR-5 = test system: OVCAR-5
# MDA-MB-435 = test system: MDA-MB-435
# OVCAR-3 = test system: OVCAR-3
# Hs-578T = test system: Hs-578T
# HL-60 = test system: HL-60
# SN12C = test system: SN12C
# NCI/ADR-RES = test system: NCI/ADR-RES
# MOLT-4 = test system: MOLT-4
# SK-MEL-2 = test system: SK-MEL-2
# A549 = test system: A549
# HCC 2998 = test system: HCC 2998
SMILES,GI50 (KM12),GI50 (PC-3),GI50 (EKVX),GI50 (ACHN),GI50 (SW-620),GI50 (CCRF-CEM),GI50 (T47D),GI50 (A498),GI50 (U-251),GI50 (OVCAR-5),GI50 (MDA-MB-435),GI50 (OVCAR-3),GI50 (Hs-578T),GI50 (HL-60),GI50 (SN12C),GI50 (NCI/ADR-RES),GI50 (MOLT-4),GI50 (SK-MEL-2),GI50 (A549),GI50 (HCC 2998)
C[N+]1(C)CCOC(O)(c2ccccc2)C1 (stereo not drawn),> 100 µM (inactive),> 100 µM (inactive),> 100 µM (inactive),> 100 µM (inactive),> 100 µM (inactive),> 100 µM (inactive),> 100 µM (inactive),> 100 µM (inactive),> 100 µM (inactive),> 100 µM (inactive),> 100 µM (inactive),> 100 µM (inactive),> 100 µM (inactive),> 100 µM (inactive),> 100 µM (inactive),> 100 µM (inactive),> 100 µM (inactive),> 100 µM (inactive),> 100 µM (inactive),–
C[C@H]1CC[C@@]2(OC1)O[C@H]1C[C@H]3[C@@H]4CC[C@@H]5C[C@@H](OC6OC(CO)C(O)C(O)C6OC6OC(CO)C(O)C(O)C6O)CC[C@]5(C)[C@H]4CC[C@]3(C)[C@H]1[C@@H]2C (stereo partly drawn),2.6 µM (inactive),2.13 µM (inactive),2.08 µM (inactive),2.11 µM (inactive),1.77 µM (inactive),1.58 µM (inactive),1.99 µM (inactive),–,2.26 µM (inactive),1.81 µM (inactive),2.15 µM (inactive),2.16 µM (inactive),2.44 µM (inactive),0.889 µM (active),2.07 µM (inactive),2.99 µM (inactive),1.84 µM (inactive),2.28 µM (inactive),2 µM (inactive),2.02 µM (inactive)
CN1CC2CN(Cc3ccccc3)CCN2c2cccnc21 (stereo not drawn),23.9 µM (inactive),45.9 µM (inactive),53 µM (inactive),45.2 µM (inactive),35.2 µM (inactive),32.8 µM (inactive),53.7 µM (inactive),95.3 µM (inactive),42.8 µM (inactive),> 100 µM (inactive),30.5 µM (inactive),41.1 µM (inactive),40.3 µM (inactive),29 µM (inactive),–,32.1 µM (inactive),35.6 µM (inactive),89.7 µM (inactive),> 100 µM (inactive),–
C=C(Cl)C(Cl)(CBr)CCCC(C)C (stereo not drawn),11.8 µM (inactive),13.2 µM (inactive),18.3 µM (inactive),13.3 µM (inactive),40.1 µM (inactive),> 57.5 µM (inactive),> 21.2 µM (inactive),19.4 µM (inactive),8.73 µM (inactive),19.9 µM (inactive),37.5 µM (inactive),6.89 µM (inactive),7.19 µM (inactive),12.1 µM (inactive),> 100 µM (inactive),27 µM (inactive),> 100 µM (inactive),–,21.4 µM (inactive),19.6 µM (inactive)
CC1(C)C2CCC1(C)[C@H](n1c(=O)n([C@@H]3CC4CCC3(C)C4(C)C)c(=O)n([C@@H]3CC4CCC3(C)C4(C)C)c1=O)C2,58.1 µM (inactive),67.9 µM (inactive),30 µM (inactive),37.8 µM (inactive),98.2 µM (inactive),–,42.6 µM (inactive),88.5 µM (inactive),25.3 µM (inactive),64 µM (inactive),76.7 µM (inactive),35.4 µM (inactive),37.9 µM (inactive),23.9 µM (inactive),–,> 100 µM (inactive),63.4 µM (inactive),22.3 µM (inactive),31.8 µM (inactive),22 µM (inactive)
